Structures can show the parent of a compound that is named as a salt.
Legend:
human MK2 = human MK2 (Homo sapiens, UniProt P49137); test: MAPKAPK2 kinase assay (TR-FRET, Hsp27 peptide substrate)
[1] = system: TNF-α release from hPBMCs; test: Assay for inhibition of TNF-α release from hPBMCs (IFNγ/LPS stimulated); format: cell-based; settings: Homo sapiens, IFNγ (10 ng/ml) and LPS (5 μg/ml), 3 h
Description: Assay for Inhibition of TNF-α Release from hPBMCs
Human peripheral blood mononuclear cells (hPBMCs) are prepared from the peripheral blood of healthy volunteers using Ficoll-Plaque Plus (Amersham) density separation according to the method described within. Cells are seeded at a 1×10^5 cells/well in 96-well plates in RPMI 1640 medium (Invitrogen) containing 10% (v/v) fetal calf serum (FCS). Cells are pre-incubated with serial dilutions of test compound (0.25% v/v DMSO final) for 30 min at 37° C. Cells are stimulated with the addition of IFNγ (10 ng/ml) and lipopolysaccharide(LPS) (5 μg/ml) per well and incubated for 3 h at 37° C. Following a brief centrifugation (250×g for 2 min), supernatant (10 μl) samples are taken from each well and measured against a TNFα calibration curve using a HTRF TNFα kit (CisBio) as described within.
Using the TNF-α release assay described above, compounds of the formula I can be shown to have the following inhibition values: […]

[2] = molecular target: T1, MAPKAPK2 enzyme (HIS-MK2, Invitrogen PV4019) (Homo sapiens, UniProt P49137); test: Alternative MAPKAPK2 assay (Caliper microfluidic mobility shift, HSP27-peptide); format: biochemical; settings: HIS-MK2 0.013 nM, ATP 10 μM, 60 min at 30° C.
T1 construct: His; purchased Invitrogen PV4019
T1 sequence (P49137 whole entry): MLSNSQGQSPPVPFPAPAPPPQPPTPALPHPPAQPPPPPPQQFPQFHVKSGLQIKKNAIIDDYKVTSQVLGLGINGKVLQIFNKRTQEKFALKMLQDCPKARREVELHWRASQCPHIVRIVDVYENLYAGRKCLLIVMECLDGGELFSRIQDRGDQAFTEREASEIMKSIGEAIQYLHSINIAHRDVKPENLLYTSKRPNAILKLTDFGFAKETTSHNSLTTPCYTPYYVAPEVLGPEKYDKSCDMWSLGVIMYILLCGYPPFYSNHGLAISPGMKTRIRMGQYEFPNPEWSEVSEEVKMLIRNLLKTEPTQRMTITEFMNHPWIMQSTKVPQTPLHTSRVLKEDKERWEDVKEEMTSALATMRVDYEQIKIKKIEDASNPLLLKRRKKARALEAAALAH

human MK2, sequence (P49137 whole entry): as above

COCCOc1cncc(-c2cc3c(cn2)CCc2c-3[nH]c3c2C(=O)NCC32CC2)c1 [Example 1, 2-(1-Aminomethyl-cyclopropyl)-8-[5-(2-methoxy-ethoxy)-pyridin-3-yl]-4,5-dihydro-1H-pyrrolo[2,3-f]isoquinoline-3-carboxylic acid lactame]
IC50 (human MK2): 47 nM
IC50 [1]: 320 nM

COc1ccc(-c2cc3c(cn2)CCc2c-3[nH]c3c2C(=O)NC2(CC2)C3)cc1 [Example 40, 2-(1-Amino-cyclopropylmethyl)-8-(4-methoxy-phenyl)-4,5-dihydro-1H-pyrrolo[2,3-f]isoquinoline-3-carboxylic acid lactam]
IC50 [1]: 220 nM

COc1cncc(-c2cc3c(cn2)CCc2c-3[nH]c3c2C(=O)NC2(CCC2)C3)c1 [Example 99, 2-(1-Amino-cyclobutylmethyl)-8-(5-methoxy-pyridin-3-yl)-4,5-dihydro-1H-pyrrolo[2,3-f]isoquinoline-3-carboxylic acid lactam]
IC50 [1]: 311 nM
IC50 [2]: 72 nM

Cc1ccc(-c2cc3c(cn2)CCc2c-3[nH]c3c2C(=O)NC2(CCC2)C3)cn1 [Example 103, 2-(1-Amino-cyclobutylmethyl)-8-(6-methyl-pyridin-3-yl)-4,5-dihydro-1H-pyrrolo[2,3-f]isoquinoline-3-carboxylic acid lactam]
IC50 [1]: 336 nM
IC50 [2]: 57 nM

N#Cc1ccc(-c2cc3c(cn2)CCc2c-3[nH]c3c2C(=O)NCC32CC2)cn1 [Example 127, 2-(1-Aminomethyl-cyclopropyl)-8-(6-cyano-pyridin-3-yl)-4,5-dihydro-1H-pyrrolo[2,3-f]isoquinoline-3-carboxylic acid lactam]
IC50 [1]: 264 nM

CN1CC2(CNC(=O)c3c2[nH]c2c3CCc3cnc(-c4ccccc4F)cc3-2)C1 [Example 172, 2-(3-Aminomethyl-1-methyl-azetidin-3-yl)-8-(2-fluoro-phenyl)-4,5-dihydro-1H-pyrrolo[2,3-f]isoquinoline-3-carboxylic acid lactam]
IC50 [1]: 347 nM

CC(C)Oc1ccc(-c2cc3c(cn2)CCc2c-3[nH]c3c2C(=O)NCC32CN(C)C2)cn1 [Example 185, 2-(3-Aminomethyl-1-methyl-azetidin-3-yl)-8-(6-isopropoxy-pyridin-3-yl)-4,5-dihydro-1H-pyrrolo[2,3-f]isoquinoline-3-carboxylic acid lactam hydrochloride]
IC50 [1]: 134 nM
IC50 [2]: < 3 nM

O=C1NCC2(CNC2)c2[nH]c3c(c21)CCc1cnc(-c2cccc(Cl)c2)cc1-3 [Example 187, 2-[3-Aminomethyl-azetidin-3-yl]-8-(3-chloro-phenyl)-4,5-dihydro-1H-pyrrolo[2,3-f]isoquinoline-3-carboxylic acid lactam hydrochloride]
IC50 [1]: 156 nM
IC50 [2]: < 3 nM

O=C1NC2(CC2)C2(CC2)c2[nH]c3c(c21)CCc1cnc(-c2cccc(F)c2)cc1-3 [Example 195, 2-(1′-Amino-bicyclopropyl-1-yl)-8-(3-fluoro-phenyl)-4,5-dihydro-1H-pyrrolo[2,3-f]isoquinoline-3-carboxylic acid lactam]
IC50 [1]: 333 nM

COc1ccc(-c2ncc3c(n2)-c2[nH]c4c(c2CC3)C(=O)NCC42CN(C)C2)cc1 [Example 207, 2-(3-Aminomethyl-1-methyl-azetidin-3-yl)-8-(4-methoxy-phenyl)-4,5-dihydro-1H-1,7,9-triaza-cyclopenta[a]naphthalene-3-carboxylic acid lactam]
IC50 [1]: 130 nM

O=C1NCC2(CC2)c2[nH]c3c(c21)CCc1cnc(-c2ccc(CN4CCOCC4)c(F)c2)cc1-3 [Example 301, 2-(3-Fluoro-4-morpholin-4-ylmethyl-phenyl)-10-spirocyclopropyl-5,6,8,9,10,11-exahydro-3,8,11-triaza-benzo[a]fluoren-7-one]
IC50 [1]: 256 nM
IC50 [2]: 29 nM

Source: patent publication US7838674B2, “Tetracyclic lactame derivatives” (Novartis AG, priority 2007, dated 2010)
